How the values were obtained:
[1] = DSC doublet peak area (α-structure) of hair after heat cycles; settings: for Doublet Peak Area, normalized: 5 cycles
Description: (§1) Normal blonde hair was bleached with Clairol Basic White Bleach (40 volume H2O2) for 20 min at standard room temperature and humidity. The bleached swatches were rinsed with tap water, and soaked in an excess of deionized water for 2 hours. The swatches were air-dried and equilibrated for 48 hours prior to further treatment. Some of the bleached swatches were subsequently “permed” using a Reforming Lotion (10% TGA, pH 8.8, 20 minutes) and then neutralized with 2% H2O2, pH 3 (5 minutes). The bleached/permed swatches were rinsed with tap water, and soaked in an excess of deionized water for 2 hours. The swatches were air-dried and equilibrated for 48 hours prior to further treatment. The swatches that were heat treated were treated with 0.06M solutions of hexoses and pentoses for 10 min at 45° C. and then were heated for 12 cycles. The swatches were rinsed after the heat application.
(§2) In the DSC tests, finely cut hair (4-5 mg) was crimped in an aluminum pan that was punctured prior to each run. The samples were heated from 25° C. to 300° C., at a scanning rate of 20° C./min, with 5 runs per treatment. The results were averaged.
(§3) Normal blonde hair was bleached with Clairol Basic White Bleach, 40 volume H2O2, for 20 min at room temperature. One batch of normal and bleached hair swatches underwent five heat cycles at 130° C., where one treatment cycle involved the following steps (1-4):
(§4) 1. The swatches were treated with 0.06 M solutions of monosaccharides in deionized water (about 1 wt %) for 10 min at 45° C.
(§5) 2. The treated swatches were blow-dried for 1 min.
(§6) 3. The heat was applied for 1 min in the form of a flat hair iron Windmere “Solid Gold” (130° C.).
(§7) 4. The swatches were rinsed and blot-dried with a paper-towel.
(§8) The treatment solutions included four pentoses (D-xylose, D-arabinose, D-lyxose, and D-ribose, 1% each) and one hexose (1.2% D-glucose). Deionized water was used as a control treatment. After the heat experiment, the hair was rinsed in water, air-dried, and equilibrated for 24 hours in the humidity chamber at 25° C. and 50% RH prior to further testing. These swatches are referred to as treated at 130° C.
(§9) A second batch of normal and bleached hair swatches were treated in a similar way and blow-dried, without application of the hot iron. The treatment was also repeated 5 times, the swatches from the second batch are referred to as treated at 45° C.
Normal blonde hair was subjected to 12 heat cycles, as described in Example 2, using the following treatment solutions: 0.1% D-Xylose (pentose), 0.1% D-Erythrose (tetrose), and 0.1% D-Glyceraldehyde (triose). Each of the C3 to C5 monosaccharides was effective in protecting or reducing the damage to the α-structure of the hair, as compared to water treatment (Table 15).
Normal blonde hair was subjected to 12 heat cycles, as described in Example 2, using 0.1 wt % of the pentose amine derivative, D-Lyxosylimine in deionized water.

[2] = as above
Description: as §1, §2, §3, §4, §5, §6, §7, §8, §9
Normal blonde hair was divided in two batches. The hair from the first batch was bleached with Clairol Basic White Bleach, 40 volume H2O2, for 20 min at room temperature and humidity. The hair from the second batch was first bleached as above, and then permed: Reforming lotion-10% Thioglycolic acid, pH 8.8, 20 min; neutralizer-2% hydrogen peroxide, 5 min. The oxidatively damaged hair was equilibrated for 24 hours prior to further testing.
Both the bleached and the bleached/permed hair were subjected to heat treatment, as in Example 2. The heat treatment experiment involved 12 heat cycles including application of sugar or control solution before each heat application, and rinsing after the heat application. Deionized water was used as a control treatment.
After the heat experiment, the hair was rinsed in water, air-dried, and equilibrated for 24 h in the humidity chamber at 25° C. and 50% RH prior to further testing. The effect of the hexoses vs. pentoses on the dry tensile strength (INSTRON) and the alpha-structure (doublet peak area, DSC) was tested on the bleached hair (Table 13). The effect of a hexose (D-glucose) vs. a pentose (D-Xylose) on wet tensile strength (DIA-STRON) was tested both on the bleached and the bleached/permed hair (Table 14). Application of 0.06M solutions of pentoses protected the bleached and the bleached/permed hair against thermal damage (α-structure; wet and dry tensile strength).

[3] = Wet tensile strength (Dia-Stron) after heat cycles; settings: for Work 25% (Wet): 0.06 M solutions; for Work 25% (Wet) / Extension-Break / Work 25% / Work-Break / Young's Modulus: n = 100 fibers; for Extension-Break / Work 25% / Work-Break / Young's Modulus: 0.06 M, DIA-STRON; for Dia-Stron, wet fibers Extension: 1.0% solution, n = 100
Description: Normal blonde hair was bleached with Clairol Basic White Bleach (40 volume H2O2) for 20 min at standard room temperature and humidity. The bleached swatches were rinsed with tap water, and soaked in an excess of deionized water for 2 hours. The swatches were air-dried and equilibrated for 48 hours prior to further treatment. Some of the bleached swatches were subsequently “permed” using a Reforming Lotion (10% TGA, pH 8.8, 20 minutes) and then neutralized with 2% H2O2, pH 3 (5 minutes). The bleached/permed swatches were rinsed with tap water, and soaked in an excess of deionized water for 2 hours. The swatches were air-dried and equilibrated for 48 hours prior to further treatment. The swatches that were heat treated were treated with 0.06M solutions of hexoses and pentoses for 10 min at 45° C. and then were heated for 12 cycles. The swatches were rinsed after the heat application. Tensile strength was determined using both the Instron (50 dry fibers per tests) and the Dia-Stron (100 wet fibers per test), with the stretching rate of 100 mm/min. The following parameters were determined: Young's Modulus (N/m^2), Work to stretch 25% (J/m^2); Extension to Break (degree of elongation) (%); Work to Break (J/m^2). Both the bleached and the bleached/permed hair were subjected to heat treatment, as in Example 2. The heat treatment experiment involved 12 heat cycles including application of sugar or control solution before each heat application, and rinsing after the heat application. Deionized water was used as a control treatment. After the heat experiment, the hair was rinsed in water, air-dried, and equilibrated for 24 h in the humidity chamber at 25° C. and 50% RH prior to further testing. The effect of the hexoses vs. pentoses on the dry tensile strength (INSTRON) and the alpha-structure (doublet peak area, DSC) was tested on the bleached hair (Table 13). The effect of a hexose (D-glucose) vs. a pentose (D-Xylose) on wet tensile strength (DIA-STRON) was tested both on the bleached and the bleached/permed hair (Table 14). Application of 0.06M solutions of pentoses protected the bleached and the bleached/permed hair against thermal damage (α-structure; wet and dry tensile strength).

[4] = normal blonde hair, 5 cycles at 45° C., 0.06 M solutions
[5] = normal blonde hair, 45° C. (blow drying)
[6] = normal blonde hair, 130° C. (blow-drying + hot iron)
[7] = normal blonde hair, 5 heat cycles at 130° C., 0.06 M solutions
[8] = bleached hair after 12 heat cycles, 0.06 M solutions
[9] = bleached hair after 12 heat cycles, 0.06 M solutions (Table 14)
[10] = bleached hair, 5 cycles at 45° C., 0.06 M solutions
[11] = bleached hair, 5 heat cycles at 130° C., 0.06 M solutions
[12] = bleached hair after 12 heat cycles
[13] = bleached/permed hair after 12 heat cycles
[14] = wet bleached hair (blonde hair in the source) after 12 heat cycles
[15] = wet bleached/permed hair after 12 heat cycles

SMILES	Doublet Peak Area [1, 4]	Doublet Peak Area, normalized [1, 5]	Doublet Peak Area, normalized [1, 6]	Doublet Peak Area [1, 7]	Doublet Peak Area [2, 8]	Doublet Peak Area [2, 9]	Doublet Peak Area [2, 10]	Doublet Peak Area [2, 11]	Work 25% (Wet) [3, 12]	Work 25% (Wet) [3, 13]	Extension-Break [3, 14]	Work 25% [3, 14]	Work-Break [3, 14]	Young's Modulus [3, 14]	Extension-Break [3, 15]	Work 25% [3, 15]	Work-Break [3, 15]	Young's Modulus [3, 15]	further results
O=C[C@H](O)[C@@H](O)[C@H](O)[C@H](O)CO [D-Glucose, reference compound]	11.65 +/− 4.98 J/g hair	11.65 +/− 4.98 J/g hair	7.60 +/− 1.01 J/g hair	7.60 +/− 1.01 J/g hair	5.56 +/− 1.16 J/g hair	5.56 +/− 1.16 J/g hair	6.35 +/− 2.71 J/g hair	5.37 +/− 1.22 J/g hair	187.0 +/− 74.8 J/m^2	155.0 +/− 47.5 J/m^2	64.20 +/− 10.4%	187.0 +/− 74.8 J/m^2	1,130 +/− 453 J/m^2	397.0 +/− 106.0 MN/m^2	63.50 +/− 7.65%	155.0 +/− 47.5 J/m^2	979.0 +/− 300 J/m^2	136.0 +/− 92.5 MN/m^2	protection against heat treatment based on tensile properties and DSC, in words ([3]; Example 2, 12 heat cycles): little or no protection
O=C[C@H](O)[C@@H](O)[C@H](O)CO [D-Xylose]	20.17 +/− 11.98 J/g hair	20.17 +/− 11.98 J/g hair	15.27 +/− 5.14 J/g hair	15.27 +/− 5.14 J/g hair	9.74 +/− 2.13 J/g hair	9.74 +/− 2.13 J/g hair	8.41 +/− 1.33 J/g hair	9.66 +/− 2.59 J/g hair	432.0 +/− 137.0 J/m^2	199.0 +/− 74.2 J/m^2	52.80 +/− 9.29%	432.0 +/− 137.0 J/m^2	1,600 +/− 526 J/m^2	434.0 +/− 99.1 MN/m^2	54.30 +/− 4.70%	199.0 +/− 74.2 J/m^2	620.0 +/− 231.0 J/m^2	170.0 +/− 88.6 MN/m^2	Normalized area ([1]; normal blonde hair after 12 heat cycles, 1% in water): 16.05 +/− 5.05 J/g hair; Doublet Peak Area ([1]; normal blonde hair, 0.1 wt % solutions, 12 heat cycles at 130° C.): 12.74 +/− 2.32 J/g hair; protection of the hair structure as compared to water (DSC), in words ([1]; normal blonde hair, 12 heat cycles, 1% in water): appeared to protect the hair structure; protection effect (normalized α-structure peak area), in words ([2]; bleached and bleached/permed hair, 12 heat cycles): protection effect was found; Normalized area ([2]; bleached hair, 12 heat cycles, 0.06 M): 9.74 +/− 2.13 J/g hair; extension to break compared to non-treated or water-treated hair, in words ([3]; bleached and bleached/permed hair, 1% solution prior to heat application): significantly shorter; Dia-Stron, wet fibers Extension ([3]; bleached hair after 12 cycles at 130° C.): 52.80 +/− 9.29%; Dia-Stron, wet fibers Extension ([3]; bleached/permed hair after 12 cycles at 130° C.): 54.30 +/− 4.70%; protection against heat (wet tensile properties) compared to water and 1.2% D-glucose, in words ([3]; wet bleached and bleached/permed hair, 12 heat cycles, 1% solution): statistically significant protection against heat

From patent publication US7815900B1, “Use of C3-C5 monosaccharides to protect keratinous fibers” (L'Oréal S.A., priority 2000, dated 2010)
